Patent US20140018426A1, “FOOD OR BEVERAGE COMPOSITION FORTIFIED WITH THYRONAMINES AND/OR THYRONAMINE PRECURSORS” (priority 2009, published 2014)
Values joined by “and” are separate entries in the source; they are usually repeats but may differ in a detail not shown here. Equal entries are not always repeated. Where two headings read alike, the source gives them in different places.

How the values were obtained:
[1] = test system: hypercholesterolemic patients; details: cited from earlier work; for decrease in body weight: 300 mg daily for 8 months
[2] = test system: rat working heart preparation; details: cited from earlier work
[3] = test system: mice; details: cited from earlier work
[4] = biological target: trace amine-associated receptor 1 (TAAR1) (Homo sapiens, UniProt Q96RJ0); details: cited from earlier work
Chain of trace amine-associated receptor 1 (TAAR1) (Q96RJ0 whole entry, species assumed): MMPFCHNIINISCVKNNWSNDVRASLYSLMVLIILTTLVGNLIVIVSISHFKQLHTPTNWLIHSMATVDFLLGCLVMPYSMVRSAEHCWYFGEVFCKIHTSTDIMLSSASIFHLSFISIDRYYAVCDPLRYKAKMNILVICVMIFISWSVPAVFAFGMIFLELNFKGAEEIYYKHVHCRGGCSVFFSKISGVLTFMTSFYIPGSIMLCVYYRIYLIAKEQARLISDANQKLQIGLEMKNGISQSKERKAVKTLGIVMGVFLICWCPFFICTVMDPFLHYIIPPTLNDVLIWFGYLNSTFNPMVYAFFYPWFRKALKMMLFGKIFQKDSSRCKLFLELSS

[5] = test system: middle cerebral artery occlusion (MCAO) stroke model in mice; details: cited from earlier work
[6] = biological target: serotonin transporter (Homo sapiens, UniProt P31645); details: cited from earlier work
Chain of serotonin transporter (P31645 whole entry): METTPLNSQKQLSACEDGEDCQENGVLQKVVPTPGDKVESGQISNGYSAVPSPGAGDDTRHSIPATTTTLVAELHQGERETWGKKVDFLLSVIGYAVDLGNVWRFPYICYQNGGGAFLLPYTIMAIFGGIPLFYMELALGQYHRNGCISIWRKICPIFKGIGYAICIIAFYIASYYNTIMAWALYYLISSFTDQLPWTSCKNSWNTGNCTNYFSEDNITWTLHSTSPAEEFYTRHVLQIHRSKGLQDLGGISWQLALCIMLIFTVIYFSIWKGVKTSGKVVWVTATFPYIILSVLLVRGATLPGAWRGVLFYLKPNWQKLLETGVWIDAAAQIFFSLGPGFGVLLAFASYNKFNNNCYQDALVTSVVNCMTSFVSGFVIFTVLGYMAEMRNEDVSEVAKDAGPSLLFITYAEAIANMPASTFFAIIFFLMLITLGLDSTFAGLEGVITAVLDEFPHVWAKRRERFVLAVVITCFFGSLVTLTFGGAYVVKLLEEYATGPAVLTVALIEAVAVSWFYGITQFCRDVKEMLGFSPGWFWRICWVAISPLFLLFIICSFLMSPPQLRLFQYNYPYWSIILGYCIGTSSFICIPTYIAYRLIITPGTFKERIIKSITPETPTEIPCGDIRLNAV

[7] = test system: vesicular monoamine transporter; details: cited from earlier work
[8] = biological target: alpha-2A adrenergic receptor (Homo sapiens, UniProt P08913); details: cited from earlier work
Chain of alpha-2A adrenergic receptor (P08913 whole entry): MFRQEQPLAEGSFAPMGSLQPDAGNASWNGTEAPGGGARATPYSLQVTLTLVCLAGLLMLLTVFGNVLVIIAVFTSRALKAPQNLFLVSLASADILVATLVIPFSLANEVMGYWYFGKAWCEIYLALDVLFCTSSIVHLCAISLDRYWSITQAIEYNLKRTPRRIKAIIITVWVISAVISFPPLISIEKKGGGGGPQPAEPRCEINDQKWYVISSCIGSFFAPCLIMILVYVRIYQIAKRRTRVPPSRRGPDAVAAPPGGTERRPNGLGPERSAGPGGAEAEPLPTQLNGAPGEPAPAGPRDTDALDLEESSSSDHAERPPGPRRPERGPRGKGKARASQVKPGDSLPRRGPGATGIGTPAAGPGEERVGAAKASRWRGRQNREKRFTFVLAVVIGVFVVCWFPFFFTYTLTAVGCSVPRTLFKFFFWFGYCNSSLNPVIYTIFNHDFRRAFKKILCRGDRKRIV

[9] = biological target: norepenephrin transporter (Homo sapiens, UniProt P23975); details: cited from earlier work
Chain of norepenephrin transporter (P23975 whole entry): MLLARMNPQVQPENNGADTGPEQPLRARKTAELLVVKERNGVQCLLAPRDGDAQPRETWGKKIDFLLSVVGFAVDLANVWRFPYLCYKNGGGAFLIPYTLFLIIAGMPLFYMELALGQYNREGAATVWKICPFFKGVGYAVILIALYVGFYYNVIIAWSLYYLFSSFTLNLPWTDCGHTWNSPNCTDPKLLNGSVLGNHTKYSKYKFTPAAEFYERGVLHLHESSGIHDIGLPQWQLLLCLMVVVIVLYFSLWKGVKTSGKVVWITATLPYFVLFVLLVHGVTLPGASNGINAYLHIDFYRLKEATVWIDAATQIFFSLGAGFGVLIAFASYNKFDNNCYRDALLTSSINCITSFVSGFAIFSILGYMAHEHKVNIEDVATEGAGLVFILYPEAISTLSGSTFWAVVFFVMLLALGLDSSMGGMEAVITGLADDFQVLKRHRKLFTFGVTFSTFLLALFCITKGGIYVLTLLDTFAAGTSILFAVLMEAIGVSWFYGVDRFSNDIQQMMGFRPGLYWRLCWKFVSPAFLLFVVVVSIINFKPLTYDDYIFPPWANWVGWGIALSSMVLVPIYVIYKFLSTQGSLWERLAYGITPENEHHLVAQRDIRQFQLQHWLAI

[10] = biological target: serotonin 5HT-2c receptor (Homo sapiens, UniProt P28335); details: cited from earlier work
Chain of serotonin 5HT-2c receptor (P28335 33-458): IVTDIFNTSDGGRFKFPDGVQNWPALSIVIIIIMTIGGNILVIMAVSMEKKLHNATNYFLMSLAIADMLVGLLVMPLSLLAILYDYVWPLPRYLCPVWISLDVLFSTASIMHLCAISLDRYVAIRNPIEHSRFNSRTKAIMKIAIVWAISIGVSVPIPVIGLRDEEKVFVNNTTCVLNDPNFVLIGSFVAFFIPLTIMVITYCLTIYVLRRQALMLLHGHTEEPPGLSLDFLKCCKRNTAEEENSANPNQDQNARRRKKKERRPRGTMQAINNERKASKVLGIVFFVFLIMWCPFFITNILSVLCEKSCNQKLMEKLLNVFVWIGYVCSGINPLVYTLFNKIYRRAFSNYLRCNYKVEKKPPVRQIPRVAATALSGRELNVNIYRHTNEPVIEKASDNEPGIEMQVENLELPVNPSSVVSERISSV

[11] = biological target: dopamine transporter (Homo sapiens, UniProt Q01959); details: cited from earlier work
Chain of dopamine transporter (Q01959 whole entry): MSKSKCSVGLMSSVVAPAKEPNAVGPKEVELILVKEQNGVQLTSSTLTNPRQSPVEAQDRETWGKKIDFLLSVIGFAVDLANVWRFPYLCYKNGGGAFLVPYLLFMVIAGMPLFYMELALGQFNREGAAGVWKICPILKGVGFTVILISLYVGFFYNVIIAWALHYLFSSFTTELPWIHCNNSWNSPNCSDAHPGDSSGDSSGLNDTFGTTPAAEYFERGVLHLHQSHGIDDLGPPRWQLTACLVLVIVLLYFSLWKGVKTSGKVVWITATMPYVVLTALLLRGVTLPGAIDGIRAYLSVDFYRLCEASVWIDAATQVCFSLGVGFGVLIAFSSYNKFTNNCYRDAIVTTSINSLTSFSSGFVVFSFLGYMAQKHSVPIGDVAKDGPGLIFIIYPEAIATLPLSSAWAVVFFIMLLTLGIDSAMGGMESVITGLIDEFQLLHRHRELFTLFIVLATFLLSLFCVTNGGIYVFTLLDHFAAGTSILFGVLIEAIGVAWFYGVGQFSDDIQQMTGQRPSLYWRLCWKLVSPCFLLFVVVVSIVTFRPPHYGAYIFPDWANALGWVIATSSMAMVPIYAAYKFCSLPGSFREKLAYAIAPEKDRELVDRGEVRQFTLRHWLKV

[12] = test system: mice; details: cited from earlier work; remark: listed apart in the source
[13] = test system: Siberian hamsters (Phodopus sungorus); details: cited from earlier work
[14] = test system: mice; details: single dose T1AM (normal 0.83); cited from earlier work
[15] = Body weight, LDLr+/− mice on Western Diet, daily oral T2; format: in vivo; set-up: Body weight, Ave: unit not given here
Description: (§1) Mice in the study were fed a standard lab chow referred to as the “Western Diet.” The overall level of fat and the saturated nature of the fat are representative diets typical in the industrialized west that are linked to risk of cardiovascular disease in humans. The formula is used primarily with genetically manipulated rodent models that are susceptible to high cholesterol and cardiovascular disease. The diet may also be useful in diet-induced obesity, diabetes, and metabolic syndrome models. High cholesterol, obesity, and diabetes are each associated increased risk for cardiovascular disease. The composition of the Western Diet is shown below in Table 1.
(§2) C57 is a wild-type strain, LDLr+/− are a strain carrying one functional copy of the LDLr gene, and the LDLrO animals are total LDLr knockouts. The LDLr gene encodes for the LDL receptor protein, which is responsible for scavenging LDL with bound cholesterol from the blood and transporting it into cells. Both heterozygous and homozygous LDLr knockout animals develop very high serum cholesterol levels and are considered to be a good model for heterozygous and homozygous familial hypercholesterolemia in humans.
(§3) LDLr knockout animals have zero LDL receptor function. […] This effect was independent of weight loss.

[16] = test system: growth hormone gene expression; details: cited from earlier work
[17] = test system: TR β gene expression; details: cited from earlier work
[18] = test system: C57; test: Blood Sugar (serum glucose), C57 mice on Western Diet, daily oral T2; format: in vivo; details: for Blood Sugar, individual animal: C57 mice, Western Diet
Description: as §1, §2, §3

[19] = Body weight, LDLr knockout mice on Western Diet, daily oral T2; format: in vivo
Description: as §1, §2, §3

[20] = test system: LDLr+/−; test: Serum triglycerides, LDLr+/− mice on Western Diet, daily oral T2; format: in vivo; details: low and high dose T2
Description: as §1, §2, §3

[21] = test system: LDLr+/−; test: Blood Sugar (serum glucose), LDLr+/− mice on Western Diet, daily oral T2; format: in vivo; details: for Blood Sugar, individual animal: LDLr+/− mice, Western Diet
Description: as §1, §2, §3

[22] = test system: rats; details: 250 mcg/kg p.o. q.d. for 30 days, compared to controls; cited from earlier work
[23] = test system: thyroid receptor homodimer; details: in contrast to T3; cited from earlier work
[24] = test system: C57; test: Serum triglycerides, C57 mice on Western Diet, daily oral T2; format: in vivo; details: C57, low and high dose T2
Description: as §1, §2, §3

[25] = Body weight, C57 mice on Western Diet, daily oral T2; format: in vivo
Description: as §1, §2, §3

[26] = test system: LDLr0; test: Blood Sugar (serum glucose), LDLr knockout mice on Western Diet, daily oral T2; format: in vivo; details: for Blood Sugar, individual animal: LDLr0 mice, Western Diet
Description: as §1, §2, §3

[27] = test system: LDLr0; test: Serum triglycerides, LDLr knockout mice on Western Diet, daily oral T2; format: in vivo; details: low and high dose T2
Description: as §1, §2, §3

[28] = test system: TR α1, β1 and β2; details: in vitro studies; cited from earlier work

## N[C@H](Cc1cc(I)c(Oc2ccc(O)cc2)c(I)c1)C(=O)O [3,5-D-T2]
[1]; 300 mg daily
  patients with coronary artery disease with increased anginal symptoms: 7 of 13
[1]; at 20 weeks, 300 mg daily
  total serum cholesterol decrease: 20%
[1]; euthyroid subjects
  decrease in body weight: 5%
[1]; human, in vivo
  effect of doses of less than 250 mg/day: ineffective
[1]; hypothyroid patients
  decrease in body weight: 8%
[1]; increase from 76, 300 mg daily
  mean heart rate on treatment: 88 beats per minute

## NCCc1ccc(Oc2ccc(O)cc2)cc1 [T0AM, thyronamine]
[2]; rat working heart preparation
  potency as compared to T1AM (fold less potent): about 10 fold
[3]; similar results reported as for T1AM
  potency on body temperature compared with T1AM: less potent

## NCCc1ccc(Oc2ccc(O)cc2)c(I)c1 [T1AM, 3-iodothyronamine]
[4]
  TAAR1 activity: potent agonist
[5]
  reduction of infarct volume: 40%
[6]
  serotonin transporter function: binds and inhibits
[7]
  vesicular monoamine transporter function: binds and inhibits
[8]
  alpha-2A adrenergic receptor activity: agonist
[2]; rat working heart at 37° C., compound in perfusion buffer
  heart rate and systolic aortic pressure: large and immediate decreases
[9]
  norepenephrin transporter function: binds and inhibits
[10]
  serotonin 5HT-2c receptor activity: agonist
[11]
  dopamine transporter function: binds and inhibits
[3]; mice, depending on the T1AM dose
  time for body temperature to return to normal: 4 to 6 h
[3]; mice, injection
  drop in body temperature: about 10 °C
[3]; mice
  time of body temperature nadir after injection: about 1 hour
[12]
  time for blood glucose to return to baseline: 3 to 4 h
  time of blood glucose peak after the injection: 1 h
[12]; injection, at peak
  increased blood glucose: 2-5 fold
[13]; Siberian hamsters, single dose T1AM (normal 0.90)
  respiratory quotient (RQ) value: approximately 0.7
[13]; Siberian hamsters
  time of urine ketone content peak post-injection: 16 h
[13]; in vivo
  time to complete RQ shift post-injection: about 4.5 hours
[13]; summer acclimatized Siberian hamsters
  persistence of 0.7 RQ after the T1AM injection: at least 24 h
[14]
  respiratory quotient (RQ) value: approximately 0.7

## N[C@@H](Cc1cc(I)c(Oc2ccc(O)cc2)c(I)c1)C(=O)O [T2, (2S)-2-amino-3-[4-(4-hydroxyphenoxy)-3,5-diiodophenyl]propanoic acid]
[15]; High Dose T2, Day 1, individual animal, in g (unit assumed)
  Body weight: 31.4
[15]; High Dose T2, Day 2, individual animal, in g (unit assumed)
  Body weight: 31.0 and 29.1 and 29.9
[15]; High Dose T2, Day 4, individual animal, in g (unit assumed)
  Body weight: 29.0 and 27.9
[15]; Low Dose T2, Day 2, group average
  Body weight, Ave: 28.1
[15]; Low Dose T2, Day 2, individual animal
  Body weight: 282
[15]; Low Dose T2, Day 3, individual animal
  Body weight: 29.7 and 31.4
[15]; Low Dose T2, Day 4, individual animal
  Body weight: 27.4
[15]; Low Dose T2, Day 5, individual animal
  Body weight: 29.5
[15]; Low Dose T2, Day 6, individual animal
  Body weight: 29.1
[15]; Low Dose T2, Day 7, individual animal
  Body weight: 31.0 and 29.6 (2×) and 28.2
[15]; low and high dose T2
  effect on weight gain: did not affect
[16]
  potency relative to T3 in increasing growth hormone gene expression: 1/100
[17]
  less potent than T3 in decreasing TR β gene expression: 50%
[18]; 1 Week High Dose T2
  Blood Sugar, individual animal: 74 and 120 and 92
[18]; 1 Week Low Dose T2
  Blood Sugar, individual animal: 190 and 120
[18]; all genetic groups (C57), high doses of T2, vs controls
  lower blood sugar levels, average: 45-50%
[19]; LDLr0, High Dose T2, Day 1, individual animal, in g (unit assumed)
  Body weight: 27.4
[19]; LDLr0, High Dose T2, Day 2, individual animal, in g (unit assumed)
  Body weight: 23.1 and 24.8
[19]; LDLr0, High Dose T2, Day 3, individual animal, in g (unit assumed)
  Body weight: 22.8
[19]; LDLr0, High Dose T2, Day 4, individual animal, in g (unit assumed)
  Body weight: 24.8
[19]; LDLr0, High Dose T2, Day 5, individual animal, in g (unit assumed)
  Body weight: 23.1
[19]; LDLr0, Low Dose T2, Day 6, individual animal
  Body weight: 23.1
[19]; LDLr knockout, low and high dose T2
  effect on weight gain: did not affect
[20]
  effect on serum triglyceride levels: did not affect
[21]; 1 Week High Dose T2
  Blood Sugar, individual animal: 99 and 94 and 80
[21]; 1 Week Low Dose T2
  Blood Sugar, individual animal: 210
[21]; all genetic groups (LDLr+/−), high doses of T2, vs controls
  lower blood sugar levels, average: 45-50%
[22]
  decrease body weight: 13%
  decrease hepatic fat mass: 50%
  increase hepatic fat oxidation: 42%
  lower cholesterol: 18%
  lower serum triglycerides: 52%
[23]
  effect on thyroid receptor homodimer formation: no effect
[24]
  effect on serum triglyceride levels: did not affect
[25]; C57, High Dose T2, Day 1, group average
  Body weight, Ave: 28.1 g
[25]; C57, High Dose T2, Day 1, individual animal
  Body weight: 29.6 (2×) and 24.9 and 26.7
[25]; C57, High Dose T2, Day 2, individual animal, in g (unit assumed)
  Body weight: 29.5 and 25.8 and 29.7
[25]; C57, High Dose T2, Day 3, individual animal, in g (unit assumed)
  Body weight: 25.1 and 29.9 and 27.2
[25]; C57, High Dose T2, Day 4, individual animal, in g (unit assumed)
  Body weight: 29.1 and 28.7
[25]; C57, High Dose T2, Day 5, individual animal, in g (unit assumed)
  Body weight: 29.1 and 28.5
[25]; C57, Low Dose T2, Day 2, individual animal
  Body weight: 24.9
[25]; C57, Low Dose T2, Day 4, individual animal
  Body weight: 25.1
[25]; C57, Low Dose T2, Day 6, individual animal
  Body weight: 29.9 and 24.8 and 28.7
[25]; C57, low and high dose T2
  effect on weight gain: did not affect
[26]; 1 Week High Dose T2
  Blood Sugar, individual animal: 87
[26]; 1 Week Low Dose T2
  Blood Sugar, individual animal: 54 and 79
[26]; all genetic groups (LDLr knockout), high doses of T2, vs controls
  lower blood sugar levels, average: 45-50%
[27]
  effect on serum triglyceride levels: did not affect

## N[C@@H](Cc1cc(I)c(Oc2ccc(O)c(I)c2)c(I)c1)C(=O)O [T3, (2S)-2-amino-3-[4-(4-hydroxy-3-iodophenoxy)-3,5-diiodophenyl]propanoic acid]
[28]
  affinity for TR α1, β1 and β2, fold greater than that of T2: 40-500 fold
